For one experiment, the target named is PI3K-alpha (Homo sapiens, UniProt P42336). The experiment in a line: PI3K-alpha fluorescence polarization assay. The class given is biochemical. To be noted: read-out: PI3Kα Avg. IC50.
Another experiment addresses PI3K-gamma (Homo sapiens, UniProt P48736). The experiment can be described thus: PI3K-gamma fluorescence polarization assay. In kind it is biochemical. To be noted: PI3Kγ Avg. IC50. The method in brief: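 FP competition read-out: PIP3 produced displaces BODIPY-TMR-IP4 (5 nM) from GST-GRP1 PH domain (100 nM). Kinase step: 5 ng enzyme, 2.5 μM diC8-PIP2, 25 μM ATP, pH 7 HEPES/MgCl2, 1 h, 25° C; EDTA stop.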
For orientation: Fluorescence polarisation rises when a labelled molecule tumbles more slowly, as on binding a larger partner.

Some results are limits rather than exact numbers.

The text below walks through data of patent US20090311217A1, “3-SUBSTITUTED-1H-INDOLE COMPOUNDS, THEIR USE AS MTOR KINASE AND PI3 KINASE INHIBITORS, AND THEIR SYNTHESES” (priority 2008, published 2009).

The term IC50 denotes the concentration that inhibits the measured activity by half.

Chain of PI3K-alpha (P42336 whole entry, species assumed, the tested form may be a part): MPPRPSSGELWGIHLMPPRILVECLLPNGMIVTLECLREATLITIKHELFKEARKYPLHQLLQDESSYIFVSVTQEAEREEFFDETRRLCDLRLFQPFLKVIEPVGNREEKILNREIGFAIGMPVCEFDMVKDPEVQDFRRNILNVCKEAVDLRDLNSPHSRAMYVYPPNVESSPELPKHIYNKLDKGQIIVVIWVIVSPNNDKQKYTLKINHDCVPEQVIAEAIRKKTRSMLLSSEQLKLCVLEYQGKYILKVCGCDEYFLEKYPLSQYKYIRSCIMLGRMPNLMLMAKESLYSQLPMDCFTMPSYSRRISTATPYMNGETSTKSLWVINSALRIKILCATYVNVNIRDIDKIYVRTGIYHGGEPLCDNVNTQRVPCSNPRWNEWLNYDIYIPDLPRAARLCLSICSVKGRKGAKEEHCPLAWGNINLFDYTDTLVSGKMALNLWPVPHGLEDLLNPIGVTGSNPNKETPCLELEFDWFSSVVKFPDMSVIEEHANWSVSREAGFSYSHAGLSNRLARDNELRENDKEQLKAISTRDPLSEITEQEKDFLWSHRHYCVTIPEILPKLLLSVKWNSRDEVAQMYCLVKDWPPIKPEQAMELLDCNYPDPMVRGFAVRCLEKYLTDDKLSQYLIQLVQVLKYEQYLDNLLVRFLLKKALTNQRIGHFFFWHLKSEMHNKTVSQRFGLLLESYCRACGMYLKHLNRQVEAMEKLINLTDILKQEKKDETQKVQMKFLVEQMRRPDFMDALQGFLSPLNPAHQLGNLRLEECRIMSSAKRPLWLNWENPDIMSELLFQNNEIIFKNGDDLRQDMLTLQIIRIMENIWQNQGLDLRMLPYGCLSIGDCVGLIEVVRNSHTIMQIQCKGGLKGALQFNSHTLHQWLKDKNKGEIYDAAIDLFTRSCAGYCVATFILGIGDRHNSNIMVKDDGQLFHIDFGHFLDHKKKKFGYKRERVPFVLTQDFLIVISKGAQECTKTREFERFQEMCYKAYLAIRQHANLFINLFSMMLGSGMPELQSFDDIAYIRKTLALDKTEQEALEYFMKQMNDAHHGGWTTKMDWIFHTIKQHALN
Chain of PI3K-alpha (P27986 whole entry partner, species assumed, the tested form may be a part): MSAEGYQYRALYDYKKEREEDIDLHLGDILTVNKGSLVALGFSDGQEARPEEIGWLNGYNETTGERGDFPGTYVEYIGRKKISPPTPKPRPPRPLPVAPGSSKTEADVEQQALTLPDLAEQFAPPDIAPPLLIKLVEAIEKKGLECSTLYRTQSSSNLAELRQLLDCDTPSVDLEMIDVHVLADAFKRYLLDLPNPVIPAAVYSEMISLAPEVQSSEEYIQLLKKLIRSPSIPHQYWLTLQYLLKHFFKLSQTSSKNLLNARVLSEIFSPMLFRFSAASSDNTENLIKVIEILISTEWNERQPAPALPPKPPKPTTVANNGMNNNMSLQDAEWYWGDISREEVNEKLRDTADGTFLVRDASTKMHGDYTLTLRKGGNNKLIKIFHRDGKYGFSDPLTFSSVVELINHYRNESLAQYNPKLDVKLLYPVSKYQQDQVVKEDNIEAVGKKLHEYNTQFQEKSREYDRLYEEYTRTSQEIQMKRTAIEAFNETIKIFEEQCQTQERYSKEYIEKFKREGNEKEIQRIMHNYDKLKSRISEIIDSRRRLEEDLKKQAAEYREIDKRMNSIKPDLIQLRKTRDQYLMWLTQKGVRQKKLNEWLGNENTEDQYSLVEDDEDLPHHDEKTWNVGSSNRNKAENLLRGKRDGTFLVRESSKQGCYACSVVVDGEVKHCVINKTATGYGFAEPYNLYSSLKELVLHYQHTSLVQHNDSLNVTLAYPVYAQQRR
Chain of PI3K-gamma (P48736 whole entry, species assumed, the tested form may be a part): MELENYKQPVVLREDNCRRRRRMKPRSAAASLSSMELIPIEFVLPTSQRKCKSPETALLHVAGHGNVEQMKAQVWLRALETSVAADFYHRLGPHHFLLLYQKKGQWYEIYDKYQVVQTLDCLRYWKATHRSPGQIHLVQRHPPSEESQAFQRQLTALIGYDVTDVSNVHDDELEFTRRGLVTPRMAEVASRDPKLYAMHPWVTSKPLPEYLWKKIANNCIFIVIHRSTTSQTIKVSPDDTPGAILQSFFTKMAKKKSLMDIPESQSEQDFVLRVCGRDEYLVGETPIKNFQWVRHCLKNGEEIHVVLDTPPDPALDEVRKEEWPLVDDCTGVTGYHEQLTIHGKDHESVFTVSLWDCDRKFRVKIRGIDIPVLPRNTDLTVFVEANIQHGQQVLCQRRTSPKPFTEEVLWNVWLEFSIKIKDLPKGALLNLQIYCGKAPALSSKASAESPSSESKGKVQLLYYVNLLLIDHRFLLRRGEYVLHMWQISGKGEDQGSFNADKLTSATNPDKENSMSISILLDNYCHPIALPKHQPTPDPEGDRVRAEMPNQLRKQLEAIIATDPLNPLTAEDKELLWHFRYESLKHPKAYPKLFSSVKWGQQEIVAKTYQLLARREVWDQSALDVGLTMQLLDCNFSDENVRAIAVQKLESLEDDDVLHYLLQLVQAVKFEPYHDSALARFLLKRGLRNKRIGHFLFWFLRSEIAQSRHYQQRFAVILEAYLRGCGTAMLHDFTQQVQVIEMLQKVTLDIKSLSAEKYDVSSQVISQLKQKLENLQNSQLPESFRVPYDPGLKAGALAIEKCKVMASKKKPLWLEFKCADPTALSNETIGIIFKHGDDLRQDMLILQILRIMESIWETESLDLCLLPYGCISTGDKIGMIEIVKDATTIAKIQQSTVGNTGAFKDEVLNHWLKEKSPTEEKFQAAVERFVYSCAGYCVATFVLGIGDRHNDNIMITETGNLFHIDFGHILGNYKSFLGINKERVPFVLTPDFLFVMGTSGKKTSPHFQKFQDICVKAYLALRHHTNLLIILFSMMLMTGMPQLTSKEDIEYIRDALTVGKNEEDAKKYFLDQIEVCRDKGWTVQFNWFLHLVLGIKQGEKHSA

As for `Cc1cccc2c1c(/C=C1\Oc3cc(O)cc(O)c3C1=O)c(-c1ccccc1)n2C` [Compound 476, (2Z)-2-[(1,4-dimethyl-2-phenyl-1H-indol-3-yl)methylene]-4,6-dihydroxy-1-benzofuran-3(2H)-one], the IC50 was found to be 412 nM on PI3K-alpha and 1640 nM against PI3K-gamma.
For `COc1ccc2c(c1)c(C=C1Oc3c(ccc(O)c3O)C1=O)c(C)n2CCCCCl` [Example 122, 2-{[1-(4-chlorobutyl)-5-methoxy-2-methyl-1H-indol-3-yl]methylene}-6,7-dihydroxyl-1-benzofuran-3(2H)-one], the IC50 at PI3K-alpha was 137 nM; against PI3K-gamma, 1500 nM.
For `CNC(=O)c1cc(O)cc2c1C(=O)/C(=C/c1c[nH]c3ccc(OC)cc13)O2` [Compound 513, (2Z)-6-hydroxy-2-[(5-methoxy-1H-indol-3-yl)methylene]-N-methyl-3-oxo-2,3-dihydro-1-benzofuran-4-carboxamide], in that order: 1540 nM and greater than 10000 nM.
For `CNC(=O)Nc1ccc2c(c1)C(=O)/C(=C/c1c[nH]c3c(C#N)cc(OC)cc13)O2` [Compound 595, 1-{(2Z)-2-[(7-cyano-5-methoxy-1H-indol-3-yl)methylene]-3-oxo-2,3-dihydro-1-benzofuran-5-yl}-3-methylurea], in that order: 222 nM and 1530 nM.
Take `CNC(=O)Nc1ccc2c(c1)C(=O)/C(=C/c1cn(CCN3CCN(C)CC3)c3ccc(OC)cc13)O2` [Compound 553, 1-[(2Z)-2-({5-methoxy-1-[2-(4-methylpiperazin-1-yl)ethyl]-1H-indol-3-yl}methylene)-3-oxo-2,3-dihydro-1-benzofuran-5-yl]-3-methylurea]: the IC50 at PI3K-alpha is 31 nM; on PI3K-gamma it was 4830 nM.
`COc1cc(/C=C/CN2CCN(C)CC2)c2[nH]cc(/C=C3\Oc4cc(O)ccc4C3=O)c2c1` [Compound 545, (2Z)-6-hydroxy-2-({5-methoxy-7-[(1E)-3-(4-methylpiperazin-1-yl)prop-1-en-1-yl]-1H-indol-3-yl}methylene)-1-benzofuran-3(2H)-one]: the values for the IC50 at PI3K-alpha and against PI3K-gamma were 40.5 nM and 1240 nM, respectively.
The like results for `COc1ccc2c(c1)c(/C=C1\Oc3ccc(CO)cc3C1=O)cn2CCN1CCN(C)CC1` [Compound 541, (2Z)-5-(hydroxymethyl)-2-({5-methoxy-1-[2-(4-methylpiperazin-1-yl)ethyl]-1Hindol-3-yl}methylene)-1-benzofuran-3(2H)-one] were, in that order, 1380 nM and 9100 nM.
For `CNC(=O)Nc1ccc2c(c1)C(=O)/C(=C/c1c(C)n(CCN3CCCCC3)c3ccc(OC)cc13)O2` [Compound 609, 1-[(2Z)-2-{[5-methoxy-2-methyl-1-(2-piperidin-1-ylethyl)-1H-indol-3-yl]methylidene}-3-oxo-2,3-dihydro-1-benzofuran-5-yl]-3-methylurea], in that order: 15 nM and 446 nM.
For `COc1ccc2c(c1)c(/C=C1\Oc3ccc(NC(=O)NC4CNC4)cc3C1=O)cn2CCN1CCN(C)CC1` [Compound 552, 1-azetidin-3-yl-3-[(2Z)-2-({5-methoxy-1-[2-(4-methylpiperazin-1-yl)ethyl]-1Hindol-3-yl}methylene)-3-oxo-2,3-dihydro-1-benzofuran-5-yl]urea], in that order: 355 nM and greater than 10000 nM.
For the compound `COc1ccc(NC(=O)Nc2ccc3c(c2)C(=O)/C(=C/c2cn(CCCN(C)C)c4ccc(OC)cc24)O3)cc1` [Compound 540, 1-[(2Z)-2-({1-[3-(dimethylamino)propyl]-5-methoxy-1H-indol-3-yl}methylene)-3-oxo-2,3-dihydro-1-benzofuran-5-yl]-3-(4-methoxyphenyl)urea], the IC50 is 104 nM at PI3K-alpha and 1550 nM on PI3K-gamma.
As to `CNC(=O)Nc1ccc2c(c1)C(=O)/C(=C/c1c(-c3ccccc3)n(CCN3CCN(C)CC3)c3ccc(OC)cc13)O2` [Compound 575, 1-[(2Z)-2-({5-methoxy-1-[2-(4-methylpiperazin-1-yl)ethyl]-2-phenyl-1H-indol-3-yl}methylene)-3-oxo-2,3-dihydro-1-benzofuran-5-yl]-3-methylurea], the IC50 on PI3K-alpha turned out to be 1.25 nM; against PI3K-gamma, 206 nM.
For `Cn1cc(/C=C2\Oc3ccc(N)cc3C2=O)c2c(-c3ccccc3)cccc21` [Compound 534, (2Z)-5-amino-2-[(1-methyl-4-phenyl-1H-indol-3-yl)methylene]-1-benzofuran-3(2H)-one], in that order: 5880 nM and 476 nM.
For `CNCCNC(=O)Nc1ccc2c(c1)C(=O)/C(=C/c1cn(CCN3CCN(C)CC3)c3ccc(OC)cc13)O2` [Compound 563, 1-[(2Z)-2-({5-methoxy-1-[2-(4-methylpiperazin-1-yl)ethyl]-1H-indol-3-yl}methylene)-3-oxo-2,3-dihydro-1-benzofuran-5-yl]-3-[2-(methylamino)ethyl]urea], in that order: 35.5 nM and 5220 nM.
Consider `CNC(=O)Nc1ccc2c(c1)C(=O)/C(=C/c1c(-c3nc(C(C)C)no3)n(CCN3CCN(C)CC3)c3ccc(OC)cc13)O2` [Compound 614, 1-[(2Z)-2-({5-methoxy-2-[3-(1-methylethyl)-1,2,4-oxadiazol-5-yl]-1-[2-(4-methylpiperazin-1-yl)ethyl]-1H-indol-3-yl}methylidene)-3-oxo-2,3-dihydro-1-benzofuran-5-yl]-3-methylurea], for which the values for the IC50 on PI3K-alpha and at PI3K-gamma were 3.5 nM and 355 nM, respectively.
For `CCNC(=O)Nc1ccc2c(c1)C(=O)/C(=C/c1c[nH]c3ccc(OC)cc13)O2` [Compound 489, 1-ethyl-3-{(2Z)-2-[(5-methoxy-1H-indol-3-yl)methylene]-3-oxo-2,3-dihydro-1-benzofuran-5-yl}urea], in that order: 6220 nM and greater than 10000 nM.
For `CNC(=O)Nc1ccc2c(c1)C(=O)/C(=C/c1cn(C)c3c(CCCN4CCN(C)CC4)cc(OC)cc13)O2` [Compound 572, 1-[(2Z)-2-({5-methoxy-1-methyl-7-[3-(4-methylpiperazin-1-yl)propyl]-1H-indol-3-yl}methylene)-3-oxo-2,3-dihydro-1-benzofuran-5-yl]-3-methylurea], the values for the IC50 on PI3K-alpha and against PI3K-gamma were 1660 nM and 2320 nM, respectively.
The like results for `COc1ccc2[nH]cc(C=C3Oc4cc(O)cc(-c5ccccc5)c4C3=O)c2c1` [Compound 504, 6-hydroxy-2-[(5-methoxy-1H-indol-3-yl)methylene]-4-phenyl-1-benzofuran-3(2H)-one] were, in that order, 122 nM and 541 nM.
The like results for `Cn1c(-c2ccccc2)c(/C=C2\Oc3cc(O)cc(O)c3C2=O)c2c(N)cccc21` [Compound 521, (2Z)-2-[(4-amino-1-methyl-2-phenyl-1H-indol-3-yl)methylene]-4,6-dihydroxy-1-benzofuran-3(2H)-one] were, in that order, 2470 nM and 8510 nM.
The like results for `C#CCNC(=O)Nc1ccc2c(c1)C(=O)/C(=C/c1cn(CCN3CCN(C)CC3)c3ccc(OC)cc13)O2` [Compound 548, 1-[(2Z)-2-({5-methoxy-1-[2-(4-methylpiperazin-1-yl)ethyl]-1H-indol-3-yl}methylene)-3-oxo-2,3-dihydro-1-benzofuran-5-yl]-3-prop-2-yn-1-ylurea] were, in that order, 64.5 nM and 2790 nM.
Turning to `COc1ccc2[nH]cc(C=C3Oc4cc(O)cc(Br)c4C3=O)c2c1` [Compound 505, 4-bromo-6-hydroxy-2-[(5-methoxy-1H-indol-3-yl)methylene]-1-benzofuran-3(2H)-one], the IC50 on PI3K-alpha was determined as 120 nM; on PI3K-gamma, 813 nM.
For `CNC(=O)Nc1ccc2c(c1)C(=O)/C(=C/c1c(C)n(CCCn3ccnc3)c3ccc(OC)cc13)O2` [Compound 598, 1-[(2Z)-2-({1-[3-(1H-imidazol-1-yl)propyl]-5-methoxy-2-methyl-1H-indol-3-yl}methylidene)-3-oxo-2,3-dihydro-1-benzofuran-5-yl]-3-methylurea], in that order: 30.8 nM and 417 nM.
With `CNC(=O)Nc1ccc2c(c1)C(=O)/C(=C/c1cn(CCCN3CCCCC3)c3ccc(OC)cc13)O2` [Compound 578, 1-[(2Z)-2-{[5-methoxy-1-(3-piperidin-1-ylpropyl)-1H-indol-3-yl]methylene}-3-oxo-2,3-dihydro-1-benzofuran-5-yl]-3-methylurea], the IC50 stood at 38 nM on PI3K-alpha and 2180 nM against PI3K-gamma.
For `COc1cc(-c2cccnc2)c2c(c1)c(/C=C1\Oc3cc(O)ccc3C1=O)cn2CCCC#N` [Compound 502, 4-{3-[(Z)-(6-hydroxy-3-oxo-1-benzofuran-2(3H)-ylidene)methyl]-5-methoxy-7-pyridin-3-yl-1H-indol-1-yl}butanenitrile], in that order: 592 nM and 4160 nM.
Consider `COc1ccc2c(c1)c(/C=C1\Oc3cc(O)cc(C)c3C1=O)cn2C` [Compound 507, (2Z)-6-hydroxy-2-[(5-methoxy-1-methyl-1H-indol-3-yl)methylene]-4-methyl-1-benzofuran-3(2H)-one], for which the IC50 was found to be 78.5 nM at PI3K-alpha and 1540 nM at PI3K-gamma.
With `COc1ccc2[nH]cc(/C=C3\Oc4ccc(Br)cc4C3=O)c2c1` [Compound 522, (2Z)-5-bromo-2-[(5-methoxy-1H-indol-3-yl)methylene]-1-benzofuran-3(2H)-one], the IC50 on PI3K-alpha and on PI3K-gamma was greater than 10000 nM throughout.
Regarding `CCc1cc(OC)cc2c(C=C3Oc4cc(O)cc(O)c4C3=O)cn(CCCC#N)c12` [Compound 471, 4-{3-[(4,6-dihydroxy-3-oxo-1-benzofuran-2(3H)-ylidene)methyl]-7-ethyl-5-methoxy-1H-indol-1-yl}butanenitrile], the IC50 is 62.5 nM at PI3K-alpha and 139 nM against PI3K-gamma.
Turning to `CNC(=O)Nc1ccc2c(c1)C(=O)/C(=C/c1c(C(=O)NCCN(C)C)[nH]c3ccc(OC)cc13)O2` [Compound 605, N-[2-(dimethylamino)ethyl]-5-methoxy-3-[(Z)-{5-[(methylcarbamoyl)amino]-3-oxo-1-benzofuran-2(3H)-ylidene}methyl]-1H-indole-2-carboxamide], the IC50 was determined as 19 nM on PI3K-alpha and 315 nM at PI3K-gamma.
